{"source": "EPA's ToxValDB 9.5 (doi:10.2903/j.efsa.2017.4852)", "key": {"Anas platyrhynchos": {"test_system": "Anas platyrhynchos", "details": "acute; oral; unspecified; mortality"}, "Apis mellifera": {"test_system": "Apis mellifera", "details": "acute, mortality"}, "Bibionidae": {"test_system": "Bibionidae", "details": "chronic/long-term; duration: 28 days"}, "Folsomia candida": {"test_system": "Folsomia candida", "details": "chronic/long-term; reproduction"}, "Mus musculus": {"test_system": "Mus musculus", "details": "acute; oral; mortality"}, "Oryctolagus sp.": {"test_system": "Oryctolagus sp.", "details": "developmental; development"}, "Tagia sp.": {"test_system": "Tagia sp.", "details": "chronic/long-term; reproduction"}, "Chrysoperla externa": {"test_system": "Chrysoperla externa", "assay": "LR50; higher = less toxic", "details": "not reported; mortality"}}}
{"smiles": "CC#Cc1cc(C)nc(Nc2ccccc2)n1", "note": "[Mepanipyrim]", "values": [{"measurement": "LD50", "setting": "Anas platyrhynchos", "value": "> 2250", "unit": "mg/kg-day"}, {"measurement": "LD50", "setting": "Apis mellifera; dermal", "value": "> 80", "unit": "µg/piece"}, {"measurement": "LD50", "setting": "Apis mellifera; oral, unspecified", "value": "> 50", "unit": "µg/piece"}, {"measurement": "NOEC", "setting": "Bibionidae", "value": 4.67, "unit": "mg/kg"}, {"measurement": "LD50", "setting": "Colinus virginianus; acute, oral, mortality", "value": "> 2250", "unit": "mg/kg-day"}, {"measurement": "NOEC", "setting": "Colinus virginianus; reproduction developmental, reproduction", "value": 100, "unit": "mg/kg-day"}, {"measurement": "NOEC", "setting": "Folsomia candida", "value": 58.4, "unit": "mg/kg"}, {"measurement": "LD50", "setting": "Mus musculus", "value": "> 2650", "unit": "mg/kg-day"}, {"measurement": "NOAEL", "setting": "Oryctolagus sp.", "value": 10, "unit": "mg/kg-day"}, {"measurement": "LD50", "setting": "Rattus norvegicus; acute, oral, mortality", "value": "> 2650", "unit": "mg/kg-day"}, {"measurement": "LOAEL", "setting": "Rattus norvegicus; chronic, morphology", "value": 2.45, "unit": "mg/kg-day"}, {"measurement": "LOAEL", "setting": "Rattus norvegicus; reproduction developmental, histopathology: nonneoplastic", "value": 2.45, "unit": "mg/kg-day"}, {"measurement": "NOEC", "setting": "Tagia sp.", "value": 113, "unit": "mg/kg"}, {"measurement": "LR50", "setting": "Chrysoperla externa", "value": "> 500", "unit": "g/ha"}]}
